Among the data in ChEMBL document CHEMBL4411282, “Fragment-based drug discovery of triazole inhibitors to block PDEδ-RAS protein-protein interaction” (Eur J Med Chem, 2019) are IC50 values, retold here.

The assay relates to A549. The experiment in a line: Antiproliferative activity against human A549 cells harboring KRAS G12S point mutant after 72 hrs by SRB assay. The following applies: A549, 72 h.
With `c1ccc(Cn2c(-c3ccc(OC[C@H](C4CCNCC4)n4c(-c5ccccc5)nc5ccccc54)cc3)nc3ccccc32)cc1`, the IC50 – broadly, the concentration that inhibits the measured activity by half – was 6.4 µM. `COc1ccc(CSc2nnc(-c3ccc(OCC(=O)Nc4ccc(N(C)C)cc4)cc3)n2Cc2ccccc2)cc1` displayed an IC50 of 17.1 µM. For the compound `COc1ccc(CSc2nnc(-c3ccc(OCC(=O)Nc4cc(C)nn4C)cc3)n2Cc2ccccc2)cc1`, the IC50 is 18.3 µM. Take `COc1ccc(CCc2nnc(-c3ccc(OCC(=O)Nc4cnn(C)c4)cc3)n2Cc2ccccc2)cc1`: the IC50 was 24.1 µM. The compound `CC(C)Cc1nnc(SCc2ccc(C(=O)Nc3ccc4ncccc4c3)cc2)n1Cc1ccccc1` came in with a 50% inhibitory concentration (IC50) of 10.3 µM.

Take `COc1ccc(CSc2nnc(-c3ccc(OCC(=O)NC4CCCCC4)cc3)n2Cc2ccccc2)cc1`: 19.3 µM corresponded to half-maximal inhibition (IC50). `COc1ccc(CSc2nnc(-c3ccc(OCC(=O)Nc4cnn(C)c4)cc3)n2Cc2ccccc2)cc1`: the IC50 came out at 36 µM.

In turn, `COc1ccc(CSc2nnc(-c3ccc(OCC(=O)Nc4cccnc4)cc3)n2Cc2ccccc2)cc1` yielded an IC50 of 11.3 µM. As to `CCC(Oc1ccc(-c2nnc(CCc3ccc(OC)cc3)n2Cc2ccccc2)cc1)C(=O)Nc1cnn(C)c1` (stereo not drawn), the IC50 is above 50 µM.

In turn, `CC(C)Cc1nnc(SCc2ccc(C(=O)NC3CCCCC3)cc2)n1Cc1ccccc1` returned an IC50 of 32.6 µM. The compound `COc1ccc(CCc2nnc(-c3ccc(OC(C)C(=O)Nc4cnn(C)c4)cc3)n2Cc2ccccc2)cc1` (stereo not drawn) showed an IC50 above 50 µM.

In turn, `CC(C)Cc1nnc(SCc2ccc(C(=O)Nc3cccc(F)c3)cc2)n1Cc1ccccc1` had an IC50 of 20.3 µM.

`COc1ccc(CCc2nnc(-c3ccc(OC(C)(C)C(=O)Nc4cnn(C)c4)cc3)n2Cc2ccccc2)cc1`: the IC50 is above 50 µM.
